Measured values: paper PMC8102066 (eLife, 2021)
Where “and” joins values, the source holds several entries; their conditions need not be identical. Identical values can stand only once. Like-named read-outs stand apart in the source and are kept apart here.

Tests used:
mGluR2 [1] = biological target: mGluR2 (Rattus norvegicus, UniProt P31421, INS660ASEIGTGFPFDPHYVEVLGERMHYVDVGPRDGTPVLFLHGNPTSSYVWRNIIPHVAPTHRCIAPDLIGMGKSDKPDLGYFFDDHVRFMDAFIEALGLEEVVLVIHDWGSALGFHWAKRNPERVKGIAFMEFIRPIPTWDEWPEFARETFQAFRTTDVGRKLIIDQNVFIEGTLPMGVVRPLTEVEMDHYREPFLNPVDREPLWRFPNELPIAGEPANIVALVEEYMDWLHQSPVPKLLFWGTPGVLIPPAEAARLAKSLPNCKAVDIGPGLNLLQEDNPDLIGSEIARWLSTLEISGLE); experiment: Inter-TMD FRET sensor (HaloTag in ICL2), live cells; conditions: mGluR2, inter-TMD FRET
mGluR3-C127A = mGluR3-C127A (Rattus norvegicus, UniProt P31422, C127A); experiment: SiMPull subunit counting in the presence of ligands
mGluR3-3xTM4 [2] = biological target: T1, mGluR3-3xTM4 (Rattus norvegicus, UniProt P31422, F690A/G694A/S686A); experiment: Calcium imaging (G protein chimera, GCaMP6f) in HEK 293 T cells; conditions: for Calcium response amplitude: normalized to 1 mM glutamate, replicates
mGluR3-I788A = mGluR3-I788A (Rattus norvegicus, UniProt P31422, I788A); experiment: Inter-TMD FRET sensor (HaloTag in ICL2), live cells; format: cell-based; parameters: expressed in transfected cells; host or cells: HEK 293 T; FRET response amplitude: scale not given here; conditions: for FRET response amplitude: inter-TMD FRET
Text: Next, we asked how perturbing the TM6 interface would alter the conformational dynamics detected by our TMD FRET sensors.

mGluR3-G694A = mGluR3-G694A (Rattus norvegicus, UniProt P31422, G694A); experiment: Calcium imaging in HEK 293 T cells; conditions: for Calcium response amplitude: mGluR3-G694A
mGluR2-3xTM4_W = biological target: T2, mGluR2-3xTM4_W (Rattus norvegicus, UniProt P31421, A677W/A681W/A685W); experiment: Calcium imaging in HEK 293 T cells; format: cell-based; conditions: normalized to 1 mM glutamate, replicates
T2 construct: expressed in transfected cells; host or cells: HEK 293 T
Experimental: (§1) We tested this by introducing bulky, hydrophobic tryptophan residues into outward facing residues of TM4 to disrupt inter-subunit interaction.
(§2) Approximately 30 ROIs were analyzed per movie.

mGluR3-3xTM4_W = biological target: T3, mGluR3-3xTM4_W (Rattus norvegicus, UniProt P31422, F690W/G694W/S686W); experiment: Calcium imaging in HEK 293 T cells; format: cell-based; conditions: for Calcium response amplitude: normalized to saturating glutamate
T3 construct: expressed in transfected cells; host or cells: HEK 293 T
Experimental: as §1, §2

mGluR2-P778A = biological target: T4, mGluR2-P778A (Rattus norvegicus, UniProt P31421, P778A); experiment: Calcium imaging in HEK 293 T cells; format: cell-based
T4 construct: we performed calcium imaging experiments with mutations in the full-length mGluR2 background; expressed in transfected cells; host or cells: HEK 293 T
Experimental: as §2

mGluR2-F584I-G587T = biological target: T5, mGluR2-F584I-G587T (Rattus norvegicus, UniProt P31421, F584I/G587T); experiment: Calcium imaging in HEK 293 T cells; format: cell-based
T5 construct: calcium imaging experiments with mutations in the full-length mGluR2 background; expressed in transfected cells; host or cells: HEK 293T
Experimental: as §2

mGluR2-A726S-G730I-A733T = biological target: T6, mGluR2-A726S-G730I-A733T (Rattus norvegicus, UniProt P31421, A726S/A733T/G730I); experiment: Calcium imaging in HEK 293 T cells; format: cell-based
T6 construct: calcium imaging experiments with mutations in the full-length mGluR2 background; expressed in transfected cells; host or cells: HEK 293T
Experimental: as §2

mGluR2-AA695SV = biological target: T7, mGluR2-AA695SV (Rattus norvegicus, UniProt P31421, A695S/A696V); experiment: Calcium imaging in HEK 293 T cells; format: cell-based
T7 construct: calcium imaging experiments with mutations in the full-length mGluR2 background; expressed in transfected cells; host or cells: HEK 293T
Experimental: as §2

mGluR3-C127A-I788A = mGluR3-C127A-I788A (Rattus norvegicus, UniProt P31422, C127A/I788A); experiment: SiMPull subunit counting in the presence of ligands
mGluR2 [3] = biological target: mGluR2 (Rattus norvegicus, UniProt P31421); experiment: GIRK channel whole cell patch clamp in HEK 293 T cells
mGluR3-3xTM4 [4] = biological target: T1, mGluR3-3xTM4; experiment: as above; conditions: for GIRK current amplitude: mGluR3 3xTM4
[5] = read-out: Glutamate EC50 (micromolar), calcium imaging, Fig 3F source data
[6] = read-out: Glutamate EC50, calcium imaging, normalized to saturating (1 mM) glutamate

Chain of mGluR3-G694A (P31422 23-879 G694A): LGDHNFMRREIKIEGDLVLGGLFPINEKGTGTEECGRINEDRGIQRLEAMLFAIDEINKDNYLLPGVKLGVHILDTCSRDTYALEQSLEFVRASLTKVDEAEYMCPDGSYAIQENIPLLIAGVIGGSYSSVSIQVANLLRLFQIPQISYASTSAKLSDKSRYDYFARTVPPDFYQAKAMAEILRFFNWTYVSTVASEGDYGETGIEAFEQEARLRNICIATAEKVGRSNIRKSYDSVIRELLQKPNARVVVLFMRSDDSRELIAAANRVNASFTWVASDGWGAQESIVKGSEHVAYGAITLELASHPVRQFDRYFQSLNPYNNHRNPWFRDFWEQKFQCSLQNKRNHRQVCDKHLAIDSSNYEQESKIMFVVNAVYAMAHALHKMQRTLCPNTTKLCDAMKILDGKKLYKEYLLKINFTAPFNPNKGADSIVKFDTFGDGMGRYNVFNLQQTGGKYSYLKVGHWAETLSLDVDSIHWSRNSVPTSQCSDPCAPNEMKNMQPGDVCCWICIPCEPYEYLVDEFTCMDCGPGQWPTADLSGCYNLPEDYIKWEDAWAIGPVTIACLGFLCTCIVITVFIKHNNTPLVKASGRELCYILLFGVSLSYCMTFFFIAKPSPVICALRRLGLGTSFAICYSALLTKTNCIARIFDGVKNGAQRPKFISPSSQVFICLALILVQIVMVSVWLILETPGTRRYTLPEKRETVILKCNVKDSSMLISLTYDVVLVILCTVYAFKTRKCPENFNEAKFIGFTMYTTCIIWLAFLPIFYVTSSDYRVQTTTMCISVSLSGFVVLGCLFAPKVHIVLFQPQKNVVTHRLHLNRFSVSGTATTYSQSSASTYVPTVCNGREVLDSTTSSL
Chain of UniProt P31421 (P31421 with tags, fused parts or gaps with the stated changes): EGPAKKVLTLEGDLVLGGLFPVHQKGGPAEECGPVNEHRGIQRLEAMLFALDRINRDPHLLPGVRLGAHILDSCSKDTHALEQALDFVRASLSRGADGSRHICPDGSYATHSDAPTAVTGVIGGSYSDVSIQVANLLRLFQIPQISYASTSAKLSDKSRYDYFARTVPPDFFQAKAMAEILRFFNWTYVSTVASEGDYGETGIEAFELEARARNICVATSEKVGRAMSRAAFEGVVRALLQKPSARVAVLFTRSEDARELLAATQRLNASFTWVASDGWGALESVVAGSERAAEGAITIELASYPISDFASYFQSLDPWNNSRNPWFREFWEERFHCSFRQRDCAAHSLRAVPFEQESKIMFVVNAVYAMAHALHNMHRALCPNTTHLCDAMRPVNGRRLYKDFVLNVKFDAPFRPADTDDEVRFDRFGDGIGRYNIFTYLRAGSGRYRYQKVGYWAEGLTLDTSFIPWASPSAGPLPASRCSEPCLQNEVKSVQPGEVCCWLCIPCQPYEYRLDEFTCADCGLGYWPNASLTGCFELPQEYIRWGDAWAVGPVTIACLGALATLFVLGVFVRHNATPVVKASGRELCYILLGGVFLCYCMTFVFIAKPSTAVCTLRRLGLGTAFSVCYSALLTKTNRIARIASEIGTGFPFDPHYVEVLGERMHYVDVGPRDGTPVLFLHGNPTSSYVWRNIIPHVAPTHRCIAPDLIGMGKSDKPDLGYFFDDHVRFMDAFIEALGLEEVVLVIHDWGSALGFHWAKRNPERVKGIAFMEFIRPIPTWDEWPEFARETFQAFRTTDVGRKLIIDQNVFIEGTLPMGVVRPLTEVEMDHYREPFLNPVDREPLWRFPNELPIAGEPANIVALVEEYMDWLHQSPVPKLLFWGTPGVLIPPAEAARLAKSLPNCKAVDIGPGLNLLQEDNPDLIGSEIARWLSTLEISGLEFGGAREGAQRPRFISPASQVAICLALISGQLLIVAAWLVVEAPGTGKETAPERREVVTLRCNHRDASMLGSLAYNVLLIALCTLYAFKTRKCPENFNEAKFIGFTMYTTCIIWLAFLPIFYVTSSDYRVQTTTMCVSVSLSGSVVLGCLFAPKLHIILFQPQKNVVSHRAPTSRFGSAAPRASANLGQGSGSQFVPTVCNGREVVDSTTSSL
T2 sequence (P31421 19-872 A677W/A681W/A685W): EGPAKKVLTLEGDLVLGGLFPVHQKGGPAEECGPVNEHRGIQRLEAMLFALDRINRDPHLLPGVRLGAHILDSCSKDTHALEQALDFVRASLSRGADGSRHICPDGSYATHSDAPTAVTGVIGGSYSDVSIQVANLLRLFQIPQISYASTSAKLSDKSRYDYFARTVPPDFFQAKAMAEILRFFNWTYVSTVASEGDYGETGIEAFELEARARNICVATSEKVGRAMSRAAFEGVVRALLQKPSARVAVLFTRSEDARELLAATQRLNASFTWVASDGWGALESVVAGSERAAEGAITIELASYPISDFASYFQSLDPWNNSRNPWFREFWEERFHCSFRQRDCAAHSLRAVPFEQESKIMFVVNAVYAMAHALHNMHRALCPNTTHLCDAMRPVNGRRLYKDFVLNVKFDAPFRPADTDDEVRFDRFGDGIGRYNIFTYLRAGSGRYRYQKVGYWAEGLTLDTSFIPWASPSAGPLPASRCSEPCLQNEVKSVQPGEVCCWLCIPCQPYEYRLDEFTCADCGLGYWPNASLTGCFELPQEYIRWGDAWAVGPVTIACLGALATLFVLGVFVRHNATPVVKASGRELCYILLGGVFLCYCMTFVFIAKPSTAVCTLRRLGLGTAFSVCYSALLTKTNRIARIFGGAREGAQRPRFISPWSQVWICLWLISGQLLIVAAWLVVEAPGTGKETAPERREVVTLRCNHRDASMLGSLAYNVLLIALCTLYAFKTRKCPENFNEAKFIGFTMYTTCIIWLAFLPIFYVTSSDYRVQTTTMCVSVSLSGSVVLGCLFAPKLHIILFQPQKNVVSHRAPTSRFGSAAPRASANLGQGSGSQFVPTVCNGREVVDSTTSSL
Chain of mGluR3-C127A-I788A (P31422 23-879 C127A/I788A): as the sequence (P31422 23-879 G694A) above, with C105A, A672G, I766A counted along it
T7 sequence (P31421 19-872 A695S/A696V): as the sequence (P31421 19-872 A677W/A681W/A685W) above, with W659A, W663A, W667A, A677S, A678V counted along it
T5 sequence (P31421 19-872 F584I/G587T): as the sequence (P31421 19-872 A677W/A681W/A685W) above, with F566I, G569T, W659A, W663A, W667A counted along it
Chain of mGluR2 (Rattus norvegicus, UniProt P31421) (P31421 19-872): as the sequence (P31421 19-872 A677W/A681W/A685W) above, with W659A, W663A, W667A counted along it
T6 sequence (P31421 19-872 A726S/G730I/A733T): as the sequence (P31421 19-872 A677W/A681W/A685W) above, with W659A, W663A, W667A, A708S, G712I, A715T counted along it
T1 sequence (P31422 23-879 S686A/F690A/G694A): as the sequence (P31422 23-879 G694A) above, with S664A, F668A counted along it
Chain of mGluR3-C127A (P31422 23-879 C127A): as the sequence (P31422 23-879 G694A) above, with C105A, A672G counted along it
T3 sequence (P31422 23-879 S686W/F690W/G694W): as the sequence (P31422 23-879 G694A) above, with S664W, F668W, A672W counted along it
T4 sequence (P31421 19-872 P778A): as the sequence (P31421 19-872 A677W/A681W/A685W) above, with W659A, W663A, W667A, P760A counted along it
Chain of mGluR3-I788A (P31422 23-879 I788A): as the sequence (P31422 23-879 G694A) above, with A672G, I766A counted along it

SMILES: N[C@@H](CCC(=O)O)C(=O)O [glutamate]
- FRET response amplitude (mGluR2 [1]; Glutamate 10 nM): 0.00
- FRET response amplitude (mGluR2 [1]; Glutamate 100 nM): 0.00
- FRET response amplitude (mGluR2 [1]; Glutamate 100 uM): 0.97 and 0.96 and 0.95 and 0.92 and 1.04 and 0.99 and 1.01
- FRET response amplitude (mGluR2 [1]; Glutamate 1 mM): 1.00
- % Dimerization (mGluR3-C127A; SNAP-mGluR3-C127A in presence of the ligand, single replicates per experiment day): 83.23% and 72.86% and 68.26% and 70.70% and 67.67% and 71.63%
- effect of ligand on dimerization (SiMPull) (mGluR3-C127A; saturating concentration): increased dimerization
- Calcium response amplitude (mGluR3-3xTM4 [2]; Glutamate 100 nM): 0.028 and 0.00
- Calcium response amplitude (mGluR3-3xTM4 [2]; Glutamate 300 nM): 0.11 (2×) and 0.00 (2×)
- Calcium response amplitude (mGluR3-3xTM4 [2]; Glutamate 3 uM): 0.32 and 0.20 and 0.21 and 0.35
- Calcium response amplitude (mGluR3-3xTM4 [2]; Glutamate 10 uM): 0.27 and 0.56 and 0.69
- Calcium response amplitude (mGluR3-3xTM4 [2]; Glutamate 100 uM): 0.89 and 0.81
- EC50 (mGluR3-3xTM4 [2]; [5]): 11 µM
- EC50 (mGluR3-3xTM4 [2]; [6]): 11 ± 0.1 µM
- FRET response amplitude (mGluR3-I788A; Glutamate 10 nM): 0.00
- FRET response amplitude (mGluR3-I788A; Glutamate 1 uM): 0.60 and 0.66 and 0.55
- FRET response amplitude (mGluR3-I788A; Glutamate 10 uM): 0.97 and 1.00 and 0.86
- FRET response amplitude (mGluR3-I788A; Glutamate 100 uM): 1.00
- FRET response amplitude (mGluR3-I788A; Glutamate 1 mM): 1.00
- EC50 (mGluR3-I788A; read-out: Glutamate EC50, inter-TMD FRET, normalized to saturating (1 mM) glutamate, unit inferred): 0.66 ± 0.05 µM
- Calcium response amplitude (mGluR3-G694A; Glutamate 10 nM): 0.00
- Calcium response amplitude (mGluR3-G694A; Glutamate 5 uM): 0.50 and 0.59 and 0.67
- Calcium response amplitude (mGluR3-G694A; Glutamate 10 uM): 0.98
- Calcium response amplitude (mGluR3-G694A; Glutamate 100 uM): 1.00
- Calcium response amplitude (mGluR3-G694A; Glutamate 1 mM): 1.00
- EC50 (mGluR3-G694A; [5]): 4.65 µM
- EC50 (mGluR3-G694A; [6]): 4.66 ± 0.03 µM
- Calcium response amplitude (mGluR2-3xTM4_W; Glutamate 100 nM): 0.00
- Calcium response amplitude (mGluR2-3xTM4_W; Glutamate 1 uM): 0.00 and 0.08 and 0.04
- Calcium response amplitude (mGluR2-3xTM4_W; Glutamate 10 uM): 0.55 and 0.51
- Calcium response amplitude (mGluR2-3xTM4_W; Glutamate 100 uM): 1.00 and 0.99 and 0.76
- Calcium response amplitude (mGluR2-3xTM4_W; Glutamate 1 mM): 1.00
- Calcium response amplitude (mGluR3-3xTM4_W; Glutamate 10 nM, replicates): 0.00
- Calcium response amplitude (mGluR3-3xTM4_W; Glutamate 100 nM, replicates): 0.00
- Calcium response amplitude (mGluR3-3xTM4_W; Glutamate 1 uM, replicates): 0.09 and 0.064 and 0.00
- Calcium response amplitude (mGluR3-3xTM4_W; Glutamate 10 uM, replicates): 0.20 and 0.28 and 0.12 and 0.22
- Calcium response amplitude (mGluR3-3xTM4_W; Glutamate 100 uM, replicates): 0.41 and 0.50
- Calcium response amplitude (mGluR3-3xTM4_W; Glutamate 1 mM): 0.86
- Calcium response amplitude (mGluR3-3xTM4_W; Glutamate 10 mM): 1.00
- EC50 (mGluR3-3xTM4_W; read-out: Glutamate EC50, calcium imaging, normalized to saturating (1 mM) glutamate, unit inferred): 186 ± 0.27 µM
- Calcium response amplitude (mGluR2-P778A; Glutamate concentration 100 nM): 0.00
- Calcium response amplitude (mGluR2-P778A; Glutamate concentration 1 uM): 0.48 and 0.50
- Calcium response amplitude (mGluR2-P778A; Glutamate concentration 10 uM): 0.94 and 0.87
- Calcium response amplitude (mGluR2-P778A; Glutamate concentration 1 mM): 1.00
- Calcium response amplitude (mGluR2-F584I-G587T; Glutamate 100 nM): 0.00
- Calcium response amplitude (mGluR2-F584I-G587T; Glutamate 3 uM): 0.62 and 0.57 and 0.48
- Calcium response amplitude (mGluR2-F584I-G587T; Glutamate 10 uM): 0.87 and 0.71
- Calcium response amplitude (mGluR2-A726S-G730I-A733T; Glutamate 100 nM): 0.00
- Calcium response amplitude (mGluR2-A726S-G730I-A733T; Glutamate 3 uM): 0.71 and 0.60
- Calcium response amplitude (mGluR2-A726S-G730I-A733T; Glutamate 10 uM): 0.93 and 0.97 and 0.56
- Calcium response amplitude (mGluR2-A726S-G730I-A733T; Glutamate 100 uM): 1.00
- Calcium response amplitude (mGluR2-A726S-G730I-A733T; Glutamate 1 mM): 1.00
- Calcium response amplitude (mGluR2-AA695SV; Glutamate 10 nM): 0.00
- Calcium response amplitude (mGluR2-AA695SV; Glutamate 100 nM): 0.00
- Calcium response amplitude (mGluR2-AA695SV; Glutamate 10 uM): 0.72 and 0.97
- Calcium response amplitude (mGluR2-AA695SV; Glutamate 100 uM): 1.00
- Calcium response amplitude (mGluR2-AA695SV; Glutamate 1 mM): 1.00
- % Dimerization (mGluR3-C127A-I788A; SNAP-mGluR3-C127A-I788A in presence of the ligand, single replicates per experiment day): 41.49% and 28.78% and 34.64% and 33.27% and 41.72% and 37.93%
- effect of ligand on dimerization (SiMPull) (mGluR3-C127A-I788A; saturating concentration): no difference
- GIRK current amplitude (mGluR2 [3]; Glutamate 10 nM): 0.000
- GIRK current amplitude (mGluR2 [3]; Glutamate 10 uM): 0.889 and 0.827 and 0.749 and 0.879 and 0.952
- GIRK current amplitude (mGluR2 [3]; Glutamate 100 uM): 0.942 and 1.150 and 0.849 and 0.991
- GIRK current amplitude (mGluR2 [3]; Glutamate 1 mM): 1.000
- GIRK current amplitude (mGluR3-3xTM4 [4]; Glutamate 10 nM): 0.000
- GIRK current amplitude (mGluR3-3xTM4 [4]; Glutamate 10 uM): 0.695 and 0.866
- GIRK current amplitude (mGluR3-3xTM4 [4]; Glutamate 100 uM): 1.078 and 0.767 and 0.806
- GIRK current amplitude (mGluR3-3xTM4 [4]; Glutamate 1mM): 1.000
- EC50 (mGluR3-3xTM4 [4]; read-out: Glutamate EC50, GIRK activation, normalized to saturating (1 mM) glutamate, unit inferred): 1.02 ± 0.17 µM
